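Test compounds were applied to cells in 96-well plates for 48 hours at 5 doses. The concentration for 50% growth inhibition is given as GI50.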 The source made the active and inactive calls. Rule as the data show it: active = GI50 up to about 1.1 µM and inactive = higher.
Columns and labels:
Assay in all cases: NCI anticancer screen, dose series, 48 h
786-0 = test system: 786-0
A549 = test system: A549
ACHN = test system: ACHN
BT-549 = test system: BT-549
CCRF-CEM = test system: CCRF-CEM
COLO 205 = test system: COLO 205
DU-145 = test system: DU-145
EKVX = test system: EKVX
HCC 2998 = test system: HCC 2998
HCT-116 = test system: HCT-116
HCT-15 = test system: HCT-15
HL-60 = test system: HL-60
HOP-62 = test system: HOP-62
HOP-92 = test system: HOP-92
HT-29 = test system: HT-29
Hs-578T = test system: Hs-578T
IGROV-1 = test system: IGROV-1
K562 = test system: K562
KM12 = test system: KM12
M14 = test system: M14
MCF7 = test system: MCF7
MDA-MB-231 = test system: MDA-MB-231
MDA-MB-435 = test system: MDA-MB-435
MDA-N = test system: MDA-N
MOLT-4 = test system: MOLT-4
Malme-3M = test system: Malme-3M
NCI-H226 = test system: NCI-H226
NCI-H23 = test system: NCI-H23
NCI-H460 = test system: NCI-H460
NCI-H522 = test system: NCI-H522
NCI/ADR-RES = test system: NCI/ADR-RES
OVCAR-3 = test system: OVCAR-3
OVCAR-4 = test system: OVCAR-4
OVCAR-5 = test system: OVCAR-5
OVCAR-8 = test system: OVCAR-8
PC-3 = test system: PC-3
RPMI-8226 = test system: RPMI-8226
RXF 393 = test system: RXF 393
SF-268 = test system: SF-268
SF-295 = test system: SF-295
SF-539 = test system: SF-539
SK-MEL-28 = test system: SK-MEL-28
SK-MEL-5 = test system: SK-MEL-5
SK-OV-3 = test system: SK-OV-3
SN12C = test system: SN12C
SNB-19 = test system: SNB-19
SNB-75 = test system: SNB-75
SR = test system: SR
SW-620 = test system: SW-620
T47D = test system: T47D
TK-10 = test system: TK-10
U-251 = test system: U-251
UACC-257 = test system: UACC-257
UACC-62 = test system: UACC-62
UO-31 = test system: UO-31
CAKI-1 = test system: CAKI-1
LOX IMVI = test system: LOX IMVI
SK-MEL-2 = test system: SK-MEL-2

Q: For Cn1cc(NC(=O)Nc2cc(C(=O)Nc3cc(C(=O)Nc4cc(S(=O)(=O)O)c5cc(S(=O)(=O)O)cc(S(=O)(=O)O)c5c4)n(C)c3)n(C)c2)cc1C(=O)Nc1cc(C(=O)Nc2cc(S(=O)(=O)O)c3cc(S(=O)(=O)O)cc(S(=O)(=O)O)c3c2)n(C)c1, which GI50 (786-0) is on record?
A: Its GI50 is > 100 µM (inactive).

Q: And the GI50 (A549)?
A: Its GI50 is > 100 µM (inactive).

Q: What about the GI50 (ACHN) of the same compound?
A: The GI50 was > 100 µM (inactive).

Q: And the GI50 (BT-549)?
A: Its GI50 is > 100 µM (inactive).

Q: And the GI50 (CCRF-CEM)?
A: Its GI50 is > 100 µM (inactive).

Q: And the GI50 (COLO 205)?
A: The GI50 was > 100 µM (inactive).

Q: What about the GI50 (DU-145) of the same compound?
A: The GI50 was > 100 µM (inactive).

Q: And the GI50 (EKVX)?
A: Its GI50 is 31.9 µM (inactive).

Q: What about the GI50 (HCC 2998) of the same compound?
A: The GI50 was > 100 µM (inactive).

Q: And the GI50 (HCT-116)?
A: The GI50 was > 100 µM (inactive).

Q: And the GI50 (HCT-15)?
A: Its GI50 is greater than 100 µM.

Q: And the GI50 (HL-60)?
A: The GI50 was > 100 µM (inactive).

Q: And the GI50 (HOP-62)?
A: Its GI50 is > 100 µM (inactive).

Q: What about the GI50 (HOP-92) of the same compound?
A: The GI50 was 62.7 µM (inactive).

Q: What about the GI50 (HT-29) of the same compound?
A: Its GI50 is > 100 µM (inactive).

Q: And the GI50 (Hs-578T)?
A: Its GI50 is > 100 µM (inactive).

Q: What about the GI50 (IGROV-1) of the same compound?
A: The GI50 was 5.64 µM (inactive).

Q: And the GI50 (K562)?
A: The GI50 was > 100 µM (inactive).

Q: What about the GI50 (KM12) of the same compound?
A: The GI50 was > 100 µM (inactive).

Q: And the GI50 (M14)?
A: Its GI50 is > 100 µM (inactive).

Q: What about the GI50 (MCF7) of the same compound?
A: Its GI50 is > 100 µM (inactive).

Q: What about the GI50 (MDA-MB-231) of the same compound?
A: The GI50 was > 100 µM (inactive).

Q: What about the GI50 (MDA-MB-435) of the same compound?
A: The GI50 was > 100 µM (inactive).

Q: And the GI50 (MDA-N)?
A: Its GI50 is > 100 µM (inactive).

Q: And the GI50 (MOLT-4)?
A: Its GI50 is > 100 µM (inactive).

Q: What about the GI50 (Malme-3M) of the same compound?
A: The GI50 was > 100 µM (inactive).

Q: What about the GI50 (NCI-H226) of the same compound?
A: The GI50 was > 100 µM (inactive).

Q: What about the GI50 (NCI-H23) of the same compound?
A: Its GI50 is > 100 µM (inactive).

Q: What about the GI50 (NCI-H460) of the same compound?
A: Its GI50 is > 100 µM (inactive).

Q: What about the GI50 (NCI-H522) of the same compound?
A: Its GI50 is > 100 µM (inactive).

Q: What about the GI50 (NCI/ADR-RES) of the same compound?
A: The GI50 was > 100 µM (inactive).

Q: What about the GI50 (OVCAR-3) of the same compound?
A: The GI50 was > 100 µM (inactive).

Q: And the GI50 (OVCAR-4)?
A: The GI50 was > 100 µM (inactive).

Q: What about the GI50 (OVCAR-5) of the same compound?
A: Its GI50 is > 100 µM (inactive).

Q: What about the GI50 (OVCAR-8) of the same compound?
A: The GI50 was > 100 µM (inactive).

Q: And the GI50 (PC-3)?
A: Its GI50 is > 100 µM (inactive).

Q: What about the GI50 (RPMI-8226) of the same compound?
A: Its GI50 is > 100 µM (inactive).

Q: And the GI50 (RXF 393)?
A: The GI50 was > 100 µM (inactive).

Q: What about the GI50 (SF-268) of the same compound?
A: Its GI50 is > 100 µM (inactive).

Q: And the GI50 (SF-295)?
A: Its GI50 is > 100 µM (inactive).

Q: What about the GI50 (SF-539) of the same compound?
A: Its GI50 is > 100 µM (inactive).

Q: What about the GI50 (SK-MEL-28) of the same compound?
A: Its GI50 is > 100 µM (inactive).

Q: What about the GI50 (SK-MEL-5) of the same compound?
A: The GI50 was > 100 µM (inactive).

Q: What about the GI50 (SK-OV-3) of the same compound?
A: Its GI50 is > 100 µM (inactive).

Q: What about the GI50 (SN12C) of the same compound?
A: Its GI50 is > 100 µM (inactive).

Q: And the GI50 (SNB-19)?
A: The GI50 was > 100 µM (inactive).

Q: What about the GI50 (SNB-75) of the same compound?
A: The GI50 was 50.1 µM (inactive).

Q: And the GI50 (SR)?
A: The GI50 was > 100 µM (inactive).

Q: And the GI50 (SW-620)?
A: Its GI50 is > 100 µM (inactive).

Q: What about the GI50 (T47D) of the same compound?
A: Its GI50 is > 100 µM (inactive).

Q: What about the GI50 (TK-10) of the same compound?
A: Its GI50 is 87.1 µM (inactive).

Q: And the GI50 (U-251)?
A: The GI50 was > 100 µM (inactive).

Q: What about the GI50 (UACC-257) of the same compound?
A: The GI50 was > 100 µM (inactive).

Q: What about the GI50 (UACC-62) of the same compound?
A: The GI50 was > 100 µM (inactive).

Q: What about the GI50 (UO-31) of the same compound?
A: The GI50 was 78.5 µM (inactive).

Q: What does the source list for COc1ccc(C(C#N)NC23CC4CC(CC(C4)C2)C3)cc1OC (stereo not drawn)?
A: GI50 (786-0): > 100 µM (inactive); GI50 (A549): > 100 µM (inactive); GI50 (ACHN): > 100 µM (inactive); GI50 (BT-549): > 100 µM (inactive); GI50 (CAKI-1): > 100 µM (inactive); GI50 (CCRF-CEM): > 100 µM (inactive); GI50 (COLO 205): > 100 µM (inactive); GI50 (DU-145): > 100 µM (inactive); GI50 (EKVX): > 100 µM (inactive); GI50 (HCC 2998): > 100 µM (inactive); GI50 (HCT-116): > 100 µM (inactive); GI50 (HCT-15): > 100 µM; GI50 (HL-60): > 100 µM (inactive); GI50 (HOP-62): > 100 µM (inactive); GI50 (HOP-92): 96.8 µM (inactive); GI50 (HT-29): > 100 µM (inactive); GI50 (Hs-578T): > 100 µM (inactive); GI50 (IGROV-1): > 100 µM (inactive); GI50 (K562): > 100 µM (inactive); GI50 (KM12): > 100 µM (inactive); GI50 (LOX IMVI): > 100 µM (inactive); GI50 (M14): > 100 µM (inactive); GI50 (MCF7): > 100 µM (inactive); GI50 (MDA-MB-231): > 100 µM (inactive); GI50 (MDA-MB-435): > 100 µM (inactive); GI50 (MDA-N): > 100 µM (inactive); GI50 (MOLT-4): > 100 µM (inactive); GI50 (Malme-3M): > 100 µM (inactive); GI50 (NCI-H226): 79.4 µM (inactive); GI50 (NCI-H23): > 100 µM (inactive); GI50 (NCI-H460): > 100 µM (inactive); GI50 (NCI-H522): > 100 µM (inactive); GI50 (NCI/ADR-RES): > 100 µM (inactive); GI50 (OVCAR-3): > 100 µM (inactive); GI50 (OVCAR-4): > 100 µM (inactive); GI50 (OVCAR-5): > 100 µM (inactive); GI50 (OVCAR-8): > 100 µM (inactive); GI50 (PC-3): > 100 µM (inactive); GI50 (RPMI-8226): > 100 µM (inactive); GI50 (RXF 393): > 100 µM (inactive); GI50 (SF-268): > 100 µM (inactive); GI50 (SF-295): > 100 µM (inactive); GI50 (SF-539): > 100 µM (inactive); GI50 (SK-MEL-28): > 100 µM (inactive); GI50 (SK-MEL-2): > 100 µM (inactive); GI50 (SK-MEL-5): > 100 µM (inactive); GI50 (SK-OV-3): > 100 µM (inactive); GI50 (SN12C): > 100 µM (inactive); GI50 (SNB-19): > 100 µM (inactive); GI50 (SNB-75): > 100 µM (inactive); GI50 (SR): > 100 µM (inactive); GI50 (SW-620): > 100 µM (inactive); GI50 (T47D): > 100 µM (inactive); GI50 (TK-10): > 100 µM (inactive); GI50 (U-251): > 100 µM (inactive); GI50 (UACC-257): > 100 µM (inactive); GI50 (UACC-62): > 100 µM (inactive); GI50 (UO-31): 84.3 µM (inactive)
